Experimental data as given in patent publication US6737383B1, “Herbicidal oxadiazolidines” (priority 1999, dated 2004).

Columns and labels:
velvetleaf = assay: Test B pre/postemergence velvetleaf; assay type: in vivo, Abutilon theophrasti; details: for Plant response rating, Velvetleaf: scale of 0 to 10 where 0 is no effect and 10 is complete control
Outline: (§1)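 Test chemicals in a non-phytotoxic solvent mixture with surfactant were sprayed preemergence onto planted seeds and postemergence onto plants 2 to 18 cm tall (1- to 4-leaf stage). After twelve to sixteen days in a greenhouse, injury was visually rated against untreated controls from 0 (no effect) to 10 (complete control).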

crabgrass = assay: Test B pre/postemergence crabgrass; assay type: in vivo, Digitaria sanguinalis
Outline: as §1

sugar beet = assay: Test B pre/postemergence sugar beet; assay type: in vivo, Beta vulgaris; details: for Plant response rating, Sugarbeets: scale of 0 to 10 where 0 is no effect and 10 is complete control
Outline: as §1

surinam grass = assay: Test B pre/postemergence surinam grass; assay type: in vivo, Brachiaria decumbens
Outline: as §1

rape = assay: Test B pre/postemergence rape; assay type: in vivo, Brassica napus; details: for Plant response rating, Rape: scale of 0 to 10 where 0 is no effect and 10 is complete control
Outline: as §1

bamyardgrass = assay: Test B flood test barnyardgrass; assay type: in vivo, Echinochloa crus-galli
Outline: (§2)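 Plants were grown to the 2-leaf stage before treatment with test chemical, then held in a greenhouse for twelve to sixteen days. Injury was visually rated against untreated controls on a 0–10 scale, where 0 is no effect and 10 is complete control.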

wheat = assay: Test B pre/postemergence wheat; assay type: in vivo, Triticum aestivum; details: for Plant response rating, Wheat: scale of 0 to 10 where 0 is no effect and 10 is complete control
Outline: as §1

smallflower flatsedge = assay: Test B flood test smallflower flatsedge; assay type: in vivo, Cyperus difformis
Outline: as §2

purple nutsedge = assay: Test B pre/postemergence purple nutsedge; assay type: in vivo, Cyperus rotundus; details: for Plant response rating, Nutsedge: scale of 0 to 10 where 0 is no effect and 10 is complete control
Outline: as §1

soybean = assay: Test B pre/postemergence soybean; assay type: in vivo, Glycine max; details: for Plant response rating, Soybean: scale of 0 to 10 where 0 is no effect and 10 is complete control
Outline: as §1

pigweed = assay: Test B pre/postemergence pigweed; assay type: in vivo, Amaranthus retroflexus; details: for Plant response rating, Redroot pigweed: scale of 0 to 10 where 0 is no effect and 10 is complete control
Outline: as §1

cocklebur = assay: Test B pre/postemergence cocklebur; assay type: in vivo, Xanthium strumarium
Outline: as §1

corn = assay: Test B pre/postemergence corn; assay type: in vivo, Zea mays
Outline: as §1

blackgrass = assay: Test B pre/postemergence blackgrass; assay type: in vivo, Alopecurus myosuroides
Outline: as §1

wild oat = assay: Test B pre/postemergence wild oat; assay type: in vivo, Avena fatua; details: for Plant response rating, Wild oats: scale of 0 to 10 where 0 is no effect and 10 is complete control
Outline: as §1

[1] = Postemergence, Rate 250 g/ha, scale 0 to 10
[2] = Preemergence, Rate 250 g/ha, scale 0 to 10, 0 is no effect, 10 is complete control
[3] = Preemergence, Rate 500 g/ha, scale 0 to 10, 0 is no effect, 10 is complete control
[4] = Rate 62 g/ha, Postemergence, scale 0 to 10, 0 no effect, 10 complete control
[5] = Rate 125 g/ha, Postemergence, scale 0 to 10, 0 is no effect, 10 is complete control
[6] = Postemergence, Rate 500 g/ha, scale of 0 to 10 where 0 is no effect and 10 is complete control
[7] = Preemergence, Rate 62 g/ha, scale of 0 to 10 where 0 is no effect and 10 is complete control
[8] = Preemergence, Rate 125 g/ha, scale of 0 to 10 where 0 is no effect and 10 is complete control
[9] = Rate 62 g/ha, flood test species, Pre-emergence, visual evaluation after twelve to sixteen days
[10] = Rate 125 g/ha, under heading Pre-emergence, flood test species, visual evaluation after twelve to sixteen days
[11] = Rate 250 g/ha, Pre-emergence (flood test species), scale 0 to 10, 0 is no effect, 10 is complete control
[12] = Rate 500 g/ha, Pre-emergence, flood test species, scale 0 to 10 (0 no effect, 10 complete control)

SMILES: CC(C)N(C(=O)n1oc(=O)n(C(C)CCl)c1=O)c1ccc(Cl)cc1 (stereo not shown) [Compound 456]
- Velvetleaf plant response rating (velvetleaf; [1]): 0
- Plant response rating, Velvetleaf (velvetleaf; Preemergence, Rate 62 g/ha): 0
- Plant response rating, Velvetleaf (velvetleaf; Preemergence, Rate 125 g/ha): 0
- Velvetleaf plant response rating (velvetleaf; [2]): 1
- Velvetleaf plant response rating (velvetleaf; [3]): 2
- Velvetleaf plant response rating (velvetleaf; [4]): 0
- Velvetleaf plant response rating (velvetleaf; [5]): 0
- Crabgrass plant response rating (crabgrass; [1]): 4
- Crabgrass plant response rating (crabgrass; [6]): 7
- Plant response rating, Crabgrass (crabgrass; [7]): 6
- Plant response rating, Crabgrass (crabgrass; [8]): 6
- Crabgrass plant response rating (crabgrass; [2]): 8
- Crabgrass plant response rating (crabgrass; [3]): 9
- Crabgrass plant response rating (crabgrass; [4]): 4
- Sugarbeets plant response rating (sugar beet; [1]): 0
- Plant response rating, Sugarbeets (sugar beet; Preemergence, Rate 62 g/ha): 0
- Plant response rating, Sugarbeets (sugar beet; Preemergence, Rate 125 g/ha): 2
- Sugarbeets plant response rating (sugar beet; [2]): 2
- Sugarbeets plant response rating (sugar beet; [3]): 3
- Sugarbeets plant response rating (sugar beet; [4]): 0
- Sugarbeets plant response rating (sugar beet; [5]): 0
- B. signalgrass plant response rating (surinam grass; Postemergence, Rate 250 g/ha, scale 0 to 10, 0 no effect, 10 complete control): 0
- B. signalgrass plant response rating (surinam grass; [6]): 2
- Plant response rating, B. signalgrass (surinam grass; [7]): 0
- Plant response rating, B. signalgrass (surinam grass; [8]): 0
- B. signalgrass plant response rating (surinam grass; [2]): 0
- B. signalgrass plant response rating (surinam grass; [3]): 2
- B. signalgrass plant response rating (surinam grass; [4]): 0
- B. signalgrass plant response rating (surinam grass; [5]): 0
- Rape plant response rating (rape; [1]): 0
- Plant response rating, Rape (rape; Preemergence, Rate 62 g/ha): 0
- Plant response rating, Rape (rape; Preemergence, Rate 125 g/ha): 0
- Rape plant response rating (rape; [2]): 0
- Rape plant response rating (rape; [3]): 0
- Rape plant response rating (rape; [4]): 0
- Rape plant response rating (rape; [5]): 0
- Plant response rating, Barnyardgrass (0 to 10 scale, 0 is no effect, 10 is complete control) (bamyardgrass; [9]): 0
- Barnyardgrass plant response rating (0 to 10 scale, 0 is no effect, 10 is complete control) (bamyardgrass; [10]): 0
- Barnyardgrass plant response rating (bamyardgrass; [11]): 0
- Barnyardgrass plant response rating (bamyardgrass; [12]): 0
- Wheat plant response rating (wheat; [1]): 0
- Plant response rating, Wheat (wheat; Preemergence, Rate 62 g/ha): 0
- Plant response rating, Wheat (wheat; Preemergence, Rate 125 g/ha): 0
- Wheat plant response rating (wheat; [2]): 0
- Wheat plant response rating (wheat; [3]): 0
- Wheat plant response rating (wheat; [4]): 0
- Wheat plant response rating (wheat; [5]): 0
- Plant response rating, S. Flatsedge (0 to 10 scale, 0 is no effect, 10 is complete control) (smallflower flatsedge; [9]): 0
- S. Flatsedge plant response rating (0 to 10 scale, 0 is no effect, 10 is complete control) (smallflower flatsedge; [10]): 0
- S. Flatsedge plant response rating (smallflower flatsedge; [11]): 0
- S. Flatsedge plant response rating (smallflower flatsedge; [12]): 0
- Nutsedge plant response rating (purple nutsedge; [1]): 0
- Plant response rating, Nutsedge (purple nutsedge; Preemergence, Rate 62 g/ha): 0
- Plant response rating, Nutsedge (purple nutsedge; Preemergence, Rate 125 g/ha): 0
- Nutsedge plant response rating (purple nutsedge; [2]): 0
- Nutsedge plant response rating (purple nutsedge; [3]): 0
- Nutsedge plant response rating (purple nutsedge; [4]): 0
- Nutsedge plant response rating (purple nutsedge; [5]): 0
- Soybean plant response rating (soybean; [1]): 2
- Plant response rating, Soybean (soybean; Preemergence, Rate 62 g/ha): 0
- Plant response rating, Soybean (soybean; Preemergence, Rate 125 g/ha): 0
- Soybean plant response rating (soybean; [2]): 0
- Soybean plant response rating (soybean; [3]): 0
- Soybean plant response rating (soybean; [4]): 1
- Soybean plant response rating (soybean; [5]): 3
- Redroot pigweed plant response rating (pigweed; [1]): 3
- Plant response rating, Redroot pigweed (pigweed; Preemergence, Rate 62 g/ha): 0
- Plant response rating, Redroot pigweed (pigweed; Preemergence, Rate 125 g/ha): 2
- Redroot pigweed plant response rating (pigweed; [2]): 3
- Redroot pigweed plant response rating (pigweed; [3]): 5
- Redroot pigweed plant response rating (pigweed; [4]): 0
- Redroot pigweed plant response rating (pigweed; [5]): 0
- Cocklebur plant response rating (cocklebur; [1]): 0
- Cocklebur plant response rating (cocklebur; [6]): 2
- Plant response rating, Cocklebur (cocklebur; [7]): 0
- Plant response rating, Cocklebur (cocklebur; [8]): 0
- Cocklebur plant response rating (cocklebur; [2]): 0
- Cocklebur plant response rating (cocklebur; [3]): 0
- Cocklebur plant response rating (cocklebur; [4]): 0
- Cocklebur plant response rating (cocklebur; [5]): 0
- Corn plant response rating (corn; [1]): 0
- Corn plant response rating (corn; [6]): 0
- Plant response rating, Corn (corn; [7]): 0
- Plant response rating, Corn (corn; [8]): 0
- Corn plant response rating (corn; [2]): 0
- Corn plant response rating (corn; [3]): 0
- Corn plant response rating (corn; [4]): 0
- Corn plant response rating (corn; [5]): 0
- Blackgrass plant response rating (blackgrass; [1]): 4
- Blackgrass plant response rating (blackgrass; [6]): 8
- Plant response rating, Blackgrass (blackgrass; [7]): 0
- Plant response rating, Blackgrass (blackgrass; [8]): 2
- Blackgrass plant response rating (blackgrass; [2]): 3
- Blackgrass plant response rating (blackgrass; [3]): 6
- Blackgrass plant response rating (blackgrass; [4]): 4
- Blackgrass plant response rating (blackgrass; [5]): 4
- Wild oats plant response rating (wild oat; [1]): 0
- Plant response rating, Wild oats (wild oat; Preemergence, Rate 62 g/ha): 0
- Plant response rating, Wild oats (wild oat; Preemergence, Rate 125 g/ha): 0
- Wild oats plant response rating (wild oat; [2]): 2
- Wild oats plant response rating (wild oat; [3]): 3
- Wild oats plant response rating (wild oat; [4]): 0
- Wild oats plant response rating (wild oat; [5]): 0
